Measurements as given in ChEMBL document CHEMBL5500354, “Novel selective agents for the degradation of AR/AR-V7 to treat advanced prostate cancer” (Eur J Med Chem, 2024).

Experiments:
LNCaP [1] = assay: cells; conditions: Homo sapiens, 24 h, read-out: INH
Description: Antiproliferative activity against human LNCaP cells assessed as inhibition rate at 10 uM incubated for 24 hrs by CCK8 assay relative to control

CWR22R [2] = assay: cells; conditions: Homo sapiens, 22Rv1, 24 h, read-out: INH
Description: Antiproliferative activity against human 22Rv1 cells assessed as inhibition rate at 10 uM incubated for 24 hrs by CCK8 assay relative to control

Androgen receptor [3] = molecular target: T1, Androgen receptor (Homo sapiens, UniProt P10275); assay: Binding affinity to human androgen receptor transfected in HEK293 cell membrane co-transfected with ARC1 assessed as inhibition of [3H]-methyltrienolone binding to receptor incubated for 30 mins by competitive ligand binding assay
T1 sequence (P10275 whole entry): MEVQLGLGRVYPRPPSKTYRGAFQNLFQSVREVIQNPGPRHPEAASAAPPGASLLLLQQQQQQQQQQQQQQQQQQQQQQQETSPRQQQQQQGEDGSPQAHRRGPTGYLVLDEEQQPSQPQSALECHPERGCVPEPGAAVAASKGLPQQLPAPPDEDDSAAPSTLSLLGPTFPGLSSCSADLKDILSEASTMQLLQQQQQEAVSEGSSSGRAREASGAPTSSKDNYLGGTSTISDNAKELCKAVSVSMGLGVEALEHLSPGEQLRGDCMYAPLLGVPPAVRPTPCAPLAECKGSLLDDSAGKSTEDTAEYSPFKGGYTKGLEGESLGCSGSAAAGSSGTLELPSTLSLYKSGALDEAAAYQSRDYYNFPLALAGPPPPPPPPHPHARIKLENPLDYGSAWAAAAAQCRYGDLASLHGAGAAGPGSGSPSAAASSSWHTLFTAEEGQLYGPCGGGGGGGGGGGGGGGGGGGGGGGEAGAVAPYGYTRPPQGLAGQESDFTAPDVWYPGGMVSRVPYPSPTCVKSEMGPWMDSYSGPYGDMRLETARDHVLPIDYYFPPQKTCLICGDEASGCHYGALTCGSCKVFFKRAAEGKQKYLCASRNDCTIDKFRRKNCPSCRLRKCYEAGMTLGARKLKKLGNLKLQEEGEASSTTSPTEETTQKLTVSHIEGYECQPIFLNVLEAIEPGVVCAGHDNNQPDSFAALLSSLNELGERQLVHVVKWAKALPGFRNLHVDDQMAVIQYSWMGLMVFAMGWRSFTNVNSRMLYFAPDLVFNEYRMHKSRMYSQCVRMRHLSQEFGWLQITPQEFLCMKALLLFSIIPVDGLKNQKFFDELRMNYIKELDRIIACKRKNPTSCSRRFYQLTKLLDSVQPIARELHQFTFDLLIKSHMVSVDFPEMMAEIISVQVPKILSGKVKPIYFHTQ

Androgen receptor [4] = molecular target: T1, Androgen receptor
Description: Antagonist activity at androgen receptor (unknown origin) transfected in HEK293T cells co-transfected with luciferase reporter gene assessed as inhibition of transcriptional activity incubated for 18 to 20 hrs by luminescence plate reader analysis

Androgen receptor [5] = molecular target: T2, Androgen receptor (Rattus norvegicus, UniProt P15207); assay: Binding affinity to GST/His-tagged recombinant rat androgen receptor (606 to 902 residues) ligand binding domain expressed in baculovirus expression system assessed as dissociation constant by Biolayer interferometric analysis
T2 sequence (P15207 whole entry): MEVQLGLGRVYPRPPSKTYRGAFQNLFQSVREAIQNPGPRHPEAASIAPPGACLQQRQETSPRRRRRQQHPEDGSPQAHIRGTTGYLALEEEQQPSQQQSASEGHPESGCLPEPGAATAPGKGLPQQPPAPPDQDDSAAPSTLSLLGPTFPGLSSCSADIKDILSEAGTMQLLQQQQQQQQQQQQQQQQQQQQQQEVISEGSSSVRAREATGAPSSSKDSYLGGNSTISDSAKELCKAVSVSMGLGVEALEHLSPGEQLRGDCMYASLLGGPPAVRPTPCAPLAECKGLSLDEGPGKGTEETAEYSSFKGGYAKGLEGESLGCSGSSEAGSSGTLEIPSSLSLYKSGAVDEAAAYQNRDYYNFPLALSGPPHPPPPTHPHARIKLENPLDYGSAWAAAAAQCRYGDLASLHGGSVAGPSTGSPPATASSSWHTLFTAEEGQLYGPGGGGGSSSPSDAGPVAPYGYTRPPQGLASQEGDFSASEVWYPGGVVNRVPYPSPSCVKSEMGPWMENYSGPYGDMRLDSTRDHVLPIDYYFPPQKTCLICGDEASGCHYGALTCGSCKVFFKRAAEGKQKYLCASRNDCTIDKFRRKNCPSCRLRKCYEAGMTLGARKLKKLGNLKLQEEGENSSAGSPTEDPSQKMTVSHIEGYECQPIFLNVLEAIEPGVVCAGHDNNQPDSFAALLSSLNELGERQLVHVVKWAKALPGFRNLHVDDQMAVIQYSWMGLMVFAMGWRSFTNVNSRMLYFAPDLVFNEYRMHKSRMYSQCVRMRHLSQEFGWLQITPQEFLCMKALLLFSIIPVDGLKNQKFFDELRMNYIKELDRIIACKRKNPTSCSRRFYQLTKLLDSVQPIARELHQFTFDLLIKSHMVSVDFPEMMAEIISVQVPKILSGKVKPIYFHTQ

CWR22R [6] = assay: Antiproliferative activity against human 22Rv1 cells assessed as reduction in cell viability incubated for 24 hrs by CCK8 assay; conditions: 22Rv1, 24 h
LNCaP [7] = assay: Antiproliferative activity against human LNCaP cells assessed as reduction in cell viability incubated for 24 hrs by CCK8 assay

IC50 (Androgen receptor [3]) [µM]	IC50 (Androgen receptor [4]) [µM]	Kd (Androgen receptor [5]) [µM]	IC50 (LNCaP [7]) [µM]	SMILES	inhibition at 10 µM (LNCaP [1]) [%]	inhibition at 10 µM (CWR22R [2]) [%]	IC50 (CWR22R [6]) [µM]
–	–	–	–	N#Cc1ccc(O[C@H]2CC[C@H](NC(=O)c3ccc(N4CCC(CN5CCN(c6ccc(/C=C/C(=O)O)cc6)CC5)CC4)nn3)CC2)cc1Cl	36	< 10	–
–	–	–	–	N#Cc1ccc(O[C@H]2CC[C@H](NC(=O)c3ccc(N4CCC(N5CC(CF)C5)CC4)nn3)CC2)cc1Cl	15	< 10	–
–	–	–	–	N#Cc1ccc(O[C@H]2CC[C@H](NC(=O)c3ccc(N4CCC(CN5CCN(C6CN(CCCF)C6)CC5)CC4)nn3)CC2)cc1Cl	17	29	–
0.0124	> 10	–	–	N#Cc1ccc(O[C@H]2CC[C@H](NC(=O)c3ccc(N4CCC(CN5CCN(CCCC(F)(F)C(F)(F)F)CC5)CC4)nn3)CC2)cc1Cl	< 10	< 10	–
–	–	–	–	CCCNc1ccc(CC2CCN(c3ccc(C(=O)N[C@H]4CC[C@H](Oc5ccc(C#N)c(Cl)c5)CC4)nn3)CC2)cc1	< 10	< 10	–
–	–	–	–	N#Cc1ccc(O[C@H]2CC[C@H](NC(=O)c3ccc(N4CCC(CN5CCN(CC[S+]([O-])CCCC(F)(F)C(F)(F)F)CC5)CC4)nn3)CC2)cc1Cl (stereo partly drawn)	13	< 10	–
–	–	–	–	N#Cc1ccc(O[C@H]2CC[C@H](NC(=O)c3ccc(-c4ccc(NC5CN(CCCF)C5)cc4)nn3)CC2)cc1Cl	13	28	–
0.00541	> 10	–	–	N#Cc1ccc(O[C@H]2CC[C@H](NC(=O)c3ccc(N4CCC(CNC5CN(CCCF)C5)CC4)nn3)CC2)cc1Cl	10	< 10	–
0.00367	–	–	–	N#Cc1ccc(O[C@H]2CC[C@H](NC(=O)c3ccc(N4CCC(CC5CN(CCCF)C5)CC4)nn3)CC2)cc1Cl	21	< 10	–
–	–	0.59	–	N#Cc1ccc(O[C@H]2CC[C@H](NC(=O)c3ccc(N4CCC(Cc5ccc(NC6CN(CCCF)C6)cc5)CC4)nn3)CC2)cc1Cl	–	–	–
–	–	–	–	N#Cc1ccc(O[C@H]2CC[C@H](NC(=O)c3ccc(N4CCC(Cc5ccc(NCCCF)cc5)CC4)nn3)CC2)cc1Cl	< 10	< 10	–
0.00681	0.394	–	6.86	N#Cc1ccc(O[C@H]2CC[C@H](NC(=O)c3ccc(N4CCC(CN5CCN(c6ccc(NC7CN(CCCF)C7)cc6)CC5)CC4)nn3)CC2)cc1Cl	> 50	> 50	5.12
–	–	–	–	N#Cc1ccc(O[C@H]2CC[C@H](NC(=O)c3ccc(-c4ccc(NCCCCCF)cc4)nn3)CC2)cc1Cl	< 10	< 10	–

SMILES	IC50 (Androgen receptor [3]) [µM]	IC50 (Androgen receptor [4]) [µM]	Kd (Androgen receptor [5]) [µM]	IC50 (LNCaP [7]) [µM]	inhibition at 10 µM (LNCaP [1]) [%]	inhibition at 10 µM (CWR22R [2]) [%]	IC50 (CWR22R [6]) [µM]
N#Cc1ccc(O[C@H]2CC[C@H](NC(=O)c3cccnn3)CC2)cc1Cl	0.00152	0.0608	–	–	< 10	< 10	–
